{"source": "patent US20200087269A1", "about": "“PROCESS FOR THE PRODUCTION OF OZANIMOD” (EGIS GYOGYSZERGYAR ZRT., priority 2017, published 2020)", "key": {"[1]": {"assay": "Dynamic vapour sorption (DVS) measurement", "assay_type": "physicochemical", "conditions": "25° C.", "method": "Dynamic Vapour Sorption (DVS)\nDevice: TA Q5000SA dynamic vapour sorption analyser (DVS) Atmosphere: Flowing nitrogen Carrier gas flow rate: 200 mL/min N2\nBalance house flow rate: 10 mL/min N2 Temperature maintained • 35° C. in balance house: Crucible type: Platinum 100 μl, open Measuring method: Custom\nMeasuring temperature: 25° C., isotherm Measurement range: Between 0% and 95% RH Initial relative humidity: 20% RH Measurement phases: Desorption-adsorption-desorption Step size: 5% RH Mass constant criterion: ≤0.01% for 5 minutes Maximum step length: 360 minutes Sampling frequency: 5 sec/point Number of cycles: 2\nThe dynamic vapour sorption (DVS) measurement of the ozanimod base Form I polymorph according to example 6"}, "[2]": {"assay": "X-ray powder diffraction after two DVS cycles (polymorph stability to humidity)", "assay_type": "physicochemical", "method": "FIG. 5: The x-ray powder diffractogram of the ozanimod base Form I form after two DVS cycles (see example 6).\nThe x-ray powder diffraction measurements were performed as follows:\nDevice: PANalytical Empyrean x-ray powder diffractometer Measurement alignment: Transmission\nType: Empyrean long fine focussing, high resolution tube\nDivergence slit: Fixed slit 1/2° Mirror: Focussing elliptical mirror Soller slit: 0.04 rad Diffusion inhibitor slit: Fixed slit 1/2°\nDiffusion inhibitor slit: Programmable slit in fixed mode: 1/2° Soller slit: 0.04 rad\nType: Reflection-transmission, with rotatable sample holders Sample rotation speed: 1 rotation/second Direct beam catcher (“beam knife”): Transmission\nType: PIXcel 3D 1×1 area detector Operation mode: Scanning line detector (ID) operation mode Active detector window size: 3.3473° Sample preparation: samples placed between two Mylar sheets, without pulverising\nTemperature: room temperature Accelerating voltage: 45 kV Anode heating current: 40 mA Scanning method: continuous (θ/θ) scanning Measurement range: 2.0000-34.9964° 2θ\nStep duration: 109.650 seconds No of measurement cycles: 1 Measurement duration: ˜20 minutes"}}, "data": [{"smiles": "CC(C)Oc1ccc(-c2nc(-c3cccc4c3CC[C@@H]4NCCO)no2)cc1C#N", "note": "[ozanimod base Form I polymorph, ozanimod]", "values": [{"measurement": "hygroscopicity", "setting": "[1]; DVS, 0-95% RH", "value": "slightly hygroscopic"}, {"measurement": "sorption isotherm on repeating the cycle", "setting": "[1]; second DVS cycle", "value": "did not change"}, {"measurement": "mass increase of the sample", "setting": "[1]; under 95% relative humidity, first cycle", "value": 0.6, "unit": "%"}, {"measurement": "stability of the polymorph form / sensitivity to humidity", "setting": "[2]; 25° C.", "value": "stable at 25° C., and not sensitive to humidity"}, {"measurement": "influence of the humidity of the air on the stability of the crystals", "setting": "[2]; according to applicant's tests", "value": "does not influence the stability of the crystals"}, {"measurement": "polymorphic nature under air humidity", "setting": "[2]; according to applicant's tests", "value": "does not change"}, {"measurement": "crystal structure after the two DVS cycles (x-ray powder diffractogram, FIG. 5 vs FIG. 3)", "setting": "[2]; after two DVS cycles, 25° C., 0-95% RH", "value": "unchanged"}]}]}
